The target in one series is KIT^L576P (Homo sapiens, UniProt P10721, L576P). In words: KINOMEScan, KIT L576P. To be noted: read-out: KIT^L576P % control.
Another series relates to H1975 cells. The series can be described thus: Anti-proliferative activity, H1975. To be noted: Homo sapiens, NCI-H1975; NSCLC-EGFR LR/TM; supplement values ± SEM; read-out: H1975 EC50. The format is cell-based.
Series [1] can be described thus: Acute toxicity in ICR mice. The class given is in vivo. Conditions: ICR mice (n = 3), iv, 50 mg/kg once a day for five days.
The next series relates to MOLM-13 tumor xenograft. In words: MOLM-13 subcutaneous xenograft model. Conditions: nude mice, iv 1, 3 or 10 mg/kg; hydrochloride salt; p < 0.05. The class given is in vivo. The method, then:
Based on the potent in vitro anti-proliferative activity of BPR1K871, it was planned to investigate the in vivo efficacy. […] Subsequently, based on the PK study, we evaluated the acute toxicity of BPR1K871 in ICR mice (n = 3) by iv administration. […] Next, the antitumor activity of BPR1K871 was evaluated through IV route in MOLM-13 and MV4-11 xenograft models (Figure 5). For this, nude mice were inoculated subcutaneously with MOLM-13 and MV4-11 cells in the left flank. […] For MOLM-13 model, BPR1K871 was injected intravenously at 10 mg/kg daily for 5 days (on days 1–5); also BPR1K871 was intravenously administrated at 3 and 1 mg/kg once a day for two continuous weeks (on days 1–5 and 8–12). For MV4-11 model, BPR1K871 was intravenously administrated at 10, 3 and 1 mg/kg once a day for two continuous weeks (on days 1–5 and 8–12).

For another series, the target named is FLT3^R834Q (Homo sapiens, UniProt P36888, R834Q). The series can be described thus: KINOMEScan, FLT3 R834Q. Conditions: read-out: FLT3^R834Q % control.
Series [2] relates to Detroit 551 (human normal skin fibroblast cells). In words: MTS cell viability assay, Detroit-551. The format is cell-based. To be noted: 72 h. The method, then: The MTS cell viability assay was conducted as previously described. The MOLM-13 human leukemia cell line was obtained from the German Resource Centre for Biological Material (DSMZ, Braunschweig, Germany); the MV4-11 cell line was purchased from the American Type Culture Collection (ATCC, Manassas, VA, USA). Both the leukemia cell lines were maintained in RPMI 1640 medium supplemented with 10% fetal bovine serum (FBS), 10 UmL^-1 penicillin, and […] streptomycin at 37°C and 5% CO2. The Detroit-551, COLO205, and Mia-PaCa2 cell lines were purchased from the American Type Culture Collection (ATCC, Manassas, VA, USA) and cultured according to instructions of ATCC. To determine cell viability after drug treatment, assay for MOLM-13 and MV4-11 was performed by seeding 10000 cells per well in a 96-well culture plate. Detroit-551, COLO205, and Mia-PaCa2 were seeded at density of 2500, 4000, and 3750 cells per well, respectively. After 16 h, cells were then treated with vehicle or various concentrations of compound in medium for 72 h. Viable cells were quantified using the MTS method (Promega, Madison, WI, USA) according to the manufacturer's recommended protocol. Results were determined by measuring the absorbance at 490 nm using a plate reader (Victor2; PerkinElmer, Shelton, CT, USA).
(Formazan colour is commonly taken as a measure of viable cells.)

Another series concerns the target FLT3^K663Q (Homo sapiens, UniProt P36888, K663Q). In words: KINOMEScan, FLT3 K663Q. Conditions: read-out: FLT3^K663Q % control.
The target of another series is KIT^V559D (Homo sapiens, UniProt P10721, V559D). The series can be described thus: KINOMEScan, KIT V559D. Conditions: read-out: KIT^V559D % control.
In a further series the test system is MESSA cells. In words: Anti-proliferative activity, MESSA. The class given is cell-based. Conditions: Homo sapiens, MES-SA; Uterine Sarcoma.
The subject of another series is HCC827 cells. In words: Anti-proliferative activity, HCC827. The class given is cell-based. Conditions: Homo sapiens, HCC827; NSCLC-EGFR L858R; supplement values ± SEM; read-out: HCC827 EC50.
The target in another series is KIT^V559D,V654A (Homo sapiens, UniProt P10721, V559D/V654A). In words: KINOMEScan, KIT V559D,V654A. To be noted: read-out: KIT^V559D,V654A % control.
The target in the next series is CYP 2E1 (Homo sapiens, UniProt P05181). In words: CYP inhibition assay, CYP 2E1. The class given is in vitro ADME.
Series [3] has as its system phospho AURKA (Thr288), AURKB (Thr232), AURKC (Thr198), and phospho histone H3 (Ser10). In words: Western blot, phosphorylation of Aurora substrates in HCT-116 cells. The class given is cell-based, human. To be noted: 2.0 h, dose dependent. From the text: BPR1K871 inhibited phospho AURKA (Thr288), AURKB (Thr232), AURKC (Thr198), and phospho histone H3 (Ser10) formation in HCT-116 cells in a dose dependent manner (Figure 7A).
(Immunoblotting shows a protein as a band on a membrane.)

For another series, the target named is FLT3^D835Y (Homo sapiens, UniProt P36888, D835Y). In words: KINOMEScan, FLT3 D835Y. Conditions: read-out: FLT3^D835Y % control.
The subject of the next series is U937 cells. In words: Anti-proliferative activity, U937. Conditions: Homo sapiens, U-937; AML-FLT3-negative; supplement values ± SEM; read-out: U937 EC50. The format is cell-based.

“Also recorded” adds a separate entry of the source.

Chain of CYP 2E1 (P05181 whole entry): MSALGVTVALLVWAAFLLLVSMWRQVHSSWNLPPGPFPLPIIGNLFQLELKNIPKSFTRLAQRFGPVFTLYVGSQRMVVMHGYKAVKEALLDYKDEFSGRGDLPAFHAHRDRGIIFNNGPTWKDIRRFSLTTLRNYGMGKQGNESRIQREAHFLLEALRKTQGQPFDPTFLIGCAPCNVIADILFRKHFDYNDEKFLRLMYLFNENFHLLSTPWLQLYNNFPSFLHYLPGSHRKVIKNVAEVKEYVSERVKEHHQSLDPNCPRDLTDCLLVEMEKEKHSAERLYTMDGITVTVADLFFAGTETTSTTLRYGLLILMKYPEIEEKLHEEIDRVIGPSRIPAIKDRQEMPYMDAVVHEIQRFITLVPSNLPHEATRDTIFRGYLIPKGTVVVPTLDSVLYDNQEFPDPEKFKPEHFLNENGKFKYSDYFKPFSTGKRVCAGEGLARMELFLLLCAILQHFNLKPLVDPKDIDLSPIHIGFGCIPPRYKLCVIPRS
Chain of KIT^L576P (P10721 26-976 L576P): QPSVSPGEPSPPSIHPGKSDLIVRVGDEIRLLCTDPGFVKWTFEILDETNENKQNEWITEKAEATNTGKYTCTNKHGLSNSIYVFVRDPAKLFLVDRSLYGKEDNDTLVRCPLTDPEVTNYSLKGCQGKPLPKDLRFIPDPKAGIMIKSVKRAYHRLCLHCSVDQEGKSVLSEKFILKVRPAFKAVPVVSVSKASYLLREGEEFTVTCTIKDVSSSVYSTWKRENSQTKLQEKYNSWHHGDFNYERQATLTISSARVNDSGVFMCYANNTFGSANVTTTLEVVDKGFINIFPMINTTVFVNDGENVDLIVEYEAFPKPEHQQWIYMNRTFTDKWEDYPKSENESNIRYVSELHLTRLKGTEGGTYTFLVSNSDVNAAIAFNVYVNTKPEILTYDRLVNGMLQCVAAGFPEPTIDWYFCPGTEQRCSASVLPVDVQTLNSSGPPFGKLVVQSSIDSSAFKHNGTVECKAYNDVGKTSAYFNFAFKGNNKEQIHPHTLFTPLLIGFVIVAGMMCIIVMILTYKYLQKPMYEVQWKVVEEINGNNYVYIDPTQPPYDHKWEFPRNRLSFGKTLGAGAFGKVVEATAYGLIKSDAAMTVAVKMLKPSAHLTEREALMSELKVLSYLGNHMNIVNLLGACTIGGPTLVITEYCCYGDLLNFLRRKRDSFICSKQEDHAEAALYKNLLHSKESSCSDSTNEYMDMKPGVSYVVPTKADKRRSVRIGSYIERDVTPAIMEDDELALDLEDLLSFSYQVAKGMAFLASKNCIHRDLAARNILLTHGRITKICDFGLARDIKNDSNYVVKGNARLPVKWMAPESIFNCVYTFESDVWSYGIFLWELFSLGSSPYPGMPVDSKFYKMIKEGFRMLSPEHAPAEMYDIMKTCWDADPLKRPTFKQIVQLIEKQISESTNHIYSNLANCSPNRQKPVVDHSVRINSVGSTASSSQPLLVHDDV
Chain of KIT^V559D,V654A (P10721 26-976 V559D/V654A): as the sequence (P10721 26-976 L576P) above, with V534D, P551L, V629A counted along it
Chain of KIT^V559D (P10721 26-976 V559D): as the sequence (P10721 26-976 L576P) above, with V534D, P551L counted along it

By EC50 is commonly meant the concentration needed to bring the measured effect to its halfway point. A word on the IC50: it is the concentration needed to halve the response being measured. Low values mean higher potency, high ones lower potency. For `CN(C)CCCOc1ccc2c(NCCc3cnc(NC(=O)Nc4cccc(Cl)c4)s3)ncnc2c1` [BPR1K871, 1-(3-Chlorophenyl)-3-(5-(2-((7-(3-(dimethylamino)propoxy)quinazolin-4-yl)amino)ethyl)thiazol-2-yl)urea], the remaining binding at 1 µM is < 4% on KIT^L576P; < 5.2% at FLT3^R834Q; < 5.2% on FLT3^K663Q; < 4% on KIT^V559D; < 4% at KIT^V559D,V654A; < 5.2% on FLT3^D835Y. In addition, the EC50 worked out at 495 nM in the series with H1975 cells; 4000 nM in series [2]; 216 nM with MESSA cells; 257 nM in the series with HCC827 cells; 8050 nM in the series on U937 cells. The “acute toxicity (tolerability)” value in series [1] is “well tolerated”. Also, the “growth / volume of MOLM-13 tumor xenograft vs vehicle” value in the series with MOLM-13 tumor xenograft is “significantly reduced; also recorded: inhibited”. Besides, the IC50 against CYP 2E1 is > 4000 nM. Besides, the “inhibition of phospho AURKA, AURKB, AURKC and phospho histone H3 formation” value in [3] is recorded as “inhibited; also recorded: decreased levels”.

The record behind these values is PMC5349910, “Discovery of BPR1K871, a quinazoline based, multi-kinase inhibitor for the treatment of AML and solid tumors: Rational design, synthesis, in vitro and in vivo evaluation” (Oncotarget, 2016).
